Reference: US9957264B2 (Merck Sharp & Dohme Corp., priority 2013, dated 2018)

Assays:
[1] = target: JAK1 (recombinant purified GST-tagged catalytic domain) (Homo sapiens (Human), UniProt P23458); assay: Jak Biochemical HTRF Assay (JAK1); conditions: [ATP] 31.8 μM
Method in brief: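 Compounds in DMSO were pre-equilibrated with enzyme and biotinylated peptide, then ATP was added and the reaction proceeded 120 min at room temperature. EDTA-based stop buffer with detection reagents was added, and after 60 min the time-resolved FRET ratio was read. IC50s came from 4-parameter dose–response fits.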

[2] = target: JAK2 (recombinant purified GST-tagged catalytic domain) (Homo sapiens (Human), UniProt O60674); assay: Jak Biochemical HTRF Assay (JAK2); conditions: [ATP] 8.5 μM
JAK2 (recombinant purified GST-tagged catalytic domain), sequence (O60674 849-1124): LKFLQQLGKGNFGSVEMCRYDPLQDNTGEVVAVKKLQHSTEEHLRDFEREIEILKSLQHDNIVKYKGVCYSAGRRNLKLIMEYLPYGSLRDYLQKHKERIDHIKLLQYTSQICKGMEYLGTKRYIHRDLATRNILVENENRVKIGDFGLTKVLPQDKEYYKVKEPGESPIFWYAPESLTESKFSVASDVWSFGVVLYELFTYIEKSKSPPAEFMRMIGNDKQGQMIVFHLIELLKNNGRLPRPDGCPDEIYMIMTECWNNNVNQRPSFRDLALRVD

JAK1 (recombinant purified GST-tagged catalytic domain), sequence (P23458 875-1153): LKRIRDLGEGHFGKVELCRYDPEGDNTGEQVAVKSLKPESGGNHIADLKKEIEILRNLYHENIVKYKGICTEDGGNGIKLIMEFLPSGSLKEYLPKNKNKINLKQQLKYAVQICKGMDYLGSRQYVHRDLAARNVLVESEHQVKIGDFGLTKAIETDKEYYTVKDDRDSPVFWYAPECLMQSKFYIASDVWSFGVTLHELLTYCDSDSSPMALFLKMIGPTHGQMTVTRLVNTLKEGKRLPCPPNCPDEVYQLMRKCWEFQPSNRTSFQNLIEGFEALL

| Compound | IC50 [1] | IC50 [2] |
| --- | --- | --- |
| CC(C)(C)OC(=O)N1CCC(CC#N)(n2nc(Nc3ccc(S(=O)(=O)C(F)(F)F)cc3)c3c(=O)[nH]ccc32)CC1 [Example 5-76, tert-butyl 4-(cyanomethyl)-4-[4-oxo-3-({4-[(trifluoromethyl)sulfonyl]phenyl}amino)-4,5-dihydro-1H-pyrazolo [4,3-c]pyridin-1-yl] piperidine-1-carboxylate] | 0.9 nM | 7.89 nM |
| CC(C)(C)OC(=O)N1CC[C@](CC#N)(n2nc(Nc3ccc(S(C)(=O)=O)cc3)c3c(=O)[nH]ccc32)[C@@H](F)C1 (single isomer, unassigned) [Example 5-14, tert-butyl (3S,4R or 3R,4S)-4-(cyanomethyl)-3-fluoro-4-(3-{[4-(methylsulfonyl)phenyl]amino}-4-oxo-4,5-dihydro-1H-pyrazolo[4,3-c]pyridin-1-yl)piperidine-1-carboxylate] | 1.07 nM | 17.7 nM |
| N#CC[C@@]1(n2nc(Nc3ccc(S(=O)(=O)C4CCCC4)cc3)c3c(=O)[nH]ccc32)CCCOC1 [Example 5-191, [(3S)-3-(3-{[4-(cyclopentylsulfonyl)phenyl]amino}-4-oxo-4,5-dihydro-1H-pyrazolo[4,3-c]pyridin-1-yl)tetrahydro-2H-pyran-3-yl]acetonitrile] | 0.16 nM | 0.52 nM |
| CN(C(C)(C)C)S(=O)(=O)c1ccc(Nc2nn(C3(CC#N)CCCC3)c3cc[nH]c(=O)c23)cc1 [Example 5-134, N-(tert-butyl)-4-((1-(1-(cyanomethyl)cyclopentyl)-4-oxo-4,5-dihydro-1H-pyrazolo[4,3-c]pyridin-3-yl)amino)-N-methylbenzene sulfonamide] | 0.7 nM | 1.07 nM |
| CC(C)(C)OC(=O)CN1Cc2cc(Nc3nn([C@]4(CC#N)CCCOC4)c4cc[nH]c(=O)c34)ccc2S1(=O)=O [Example 5-185, tert-butyl [5-({1-[(3S)-3-(cyanomethyl)tetrahydro-2H-pyran-3-yl]-4-oxo-4,5-dihydro-1H-pyrazolo[4,3-c]pyridin-3-yl}amino)-1,1-dioxido-1,2-benzisothiazol-2(3H)-yl]acetate] | 0.08 nM | 1.5 nM |
| CC(C)(C)OC(=O)N1CCC(CC#N)(n2nc(Nc3ccc4c(c3)CCC4=O)c3c(=O)[nH]ccc32)CC1 [Example 5-12, tert-butyl 4-(cyanomethyl)-4-(4-oxo-3-((1-oxo-2,3-dihydro-1H-inden-5-yl)amino)-4,5-dihydro-1H-pyrazolo[4,3-c]pyridin-1-yl)piperidine-1-carboxylate] | 0.12 nM | 0.61 nM |
| CN(C)S(=O)(=O)c1ccc(Nc2nn(C3(CC#N)CCN(C(=O)OC(C)(C)C)CC3)c3cc[nH]c(=O)c23)cc1 [Example 5-1, tert-butyl 4-(cyanomethyl)-4-(3-((4-(N,N-dimethylsulfamoyl)phenyl)amino)-4-oxo-4,5-dihydro-1H-pyrazolo[4,3-c]pyridin-1-yl)piperidine-1-carboxylate] | 0.22 nM | 0.28 nM |
| CC(C)(C)N[C@@H](c1ccc(Nc2nn([C@]3(CC#N)CCOC[C@@H]3F)c3cc[nH]c(=O)c23)cc1)C(F)(F)F (single isomer, unassigned) [Example 5-270, 2-((3R,4R or 3S,4S)-4-(3-((4-((S or R)-1-(tert-butylamino)-2,2,2-trifluoroethyl)phenyl)amino)-4-oxo-4,5-dihydro-1H-pyrazolo[4,3-c]pyridin-1-yl)-3-fluorotetrahydro-2H-pyran-4-yl)acetonitrile] | 0.12 nM | 0.13 nM |
| CN(C(C)(C)C)S(=O)(=O)c1ccc(Nc2nn([C@]3(CC#N)CC[C@@H](C(=O)OC(C)(C)C)OC3)c3cc[nH]c(=O)c23)cc1 [Example 5-90, (2S,5S)-tert-butyl 5-(3-((4-(N-(tert-butyl)-N-methylsulfamoyl)phenyl)amino)-4-oxo-4,5-dihydro-1H-pyrazolo[4,3-c]pyridin-1-yl)-5-(cyanomethyl)tetrahydro-2H-pyran-2-carboxylate] | 0.33 nM | 0.41 nM |
| Cc1cc(Nc2nn([C@]3(CC#N)CC[C@@H](C(=O)OC(C)(C)C)OC3)c3cc[nH]c(=O)c23)ccc1C(=O)N1CCSC1C (single isomer, unassigned) [Example 5-157, (2S,5S)-tert-butyl 5-(cyanomethyl)-5-(3-((3-methyl-4-((S or R)-2-methylthiazolidine-3-carbonyl)phenyl)amino)-4-oxo-4,5-dihydro-1H-pyrazolo[4,3-c]pyridin-1-yl)tetrahydro-2H-pyran-2-carboxylate] | 0.19 nM | 0.27 nM |
| CN(C)S(=O)(=O)c1ccc(Nc2nn([C@@]3(CC#N)COCC[C@H]3F)c3cc[nH]c(=O)c23)cc1 (single isomer, unassigned) [Example 5-181, 4-({1-[(3S,4R or 3S,4R)-3-(cyanomethyl)-4-fluorotetrahydro-2H-pyran-3-yl]-4-oxo-4,5-dihydro-1H-pyrazolo[4,3-c]pyridin-3-yl}amino)-N,N-dimethylbenzene-sulfonamide] | 0.29 nM | 0.95 nM |
| CCOC(=O)C(C)(C)C(O)(c1ccc(Nc2nn([C@]3(CC#N)CCCOC3)c3cc[nH]c(=O)c23)cc1)C(F)(F)F (single isomer, unassigned) [Example 5-113, (S or R)-ethyl 3-(4-((1-((3S)-3-(cyanomethyl)tetrahydro-2H-pyran-3-yl)-4-oxo-4,5-dihydro-1H-pyrazolo[4,3-c]pyridin-3-yl)amino)phenyl)-4,4,4-trifluoro-3-hydroxy-2,2-dimethylbutanoate] | 0.28 nM | 0.34 nM |
| CCOC(=O)C(C)(C)C(O)(c1ccc(Nc2nn([C@]3(CC#N)CCCOC3)c3cc[nH]c(=O)c23)cc1)C(F)(F)F (single isomer, unassigned) [Example 5-112, (S or R)-ethyl 3-(4-((1-((3S)-3-(cyanomethyl)tetrahydro-2H-pyran-3-yl)-4-oxo-4,5-dihydro-1H-pyrazolo[4,3-c]pyridin-3-yl)amino)phenyl)-4,4,4-trifluoro-3-hydroxy-2,2-dimethylbutanoate] | 1.07 nM | 2.53 nM |
| N#CCC1(n2nc(Nc3ccc(F)cc3)c3c(=O)[nH]ccc32)CCN(C(=O)C2CC2)CC1 [Example 7, [1-(cyclopropylcarbonyl)-4-{3-[(4-fluorophenyl)amino]-4-oxo-4,5-dihydro-1H-pyrazolo[4,3-c]pyridin-1-yl}piperidin-4-yl]acetonitrile] | 0.09 nM | 1.9 nM |
| CC(C)S(=N)(=O)c1ccc(Nc2nn([C@]3(CC#N)CCCOC3)c3cc[nH]c(=O)c23)cc1 (single isomer, unassigned) [Example 5-232, 2-((3S)-3-(4-oxo-3-((4-(propan-2-yl-(S or R)-sulfonimidoyl)phenyl)amino)-4,5-dihydro-1H-pyrazolo[4,3-c]pyridin-1-yl)tetrahydro-2H-pyran-3-yl)acetonitrile] | 0.27 nM | 0.6 nM |

More lines, now with the values ahead:

| IC50 [1] | IC50 [2] | Compound |
| --- | --- | --- |
| 0.15 nM | 0.7 nM | CN(C)S(=O)(=O)c1ccc(Nc2nn(C3(CC#N)CCN(C(=O)CCc4ccccc4)CC3)c3cc[nH]c(=O)c23)cc1 [Example 9-17, 4-({1-[4-(cyanomethyl)-1-(3-phenylpropanoyl)piperidin-4-yl]-4-oxo-4,5-dihydro-1H-pyrazolo[4,3-c]pyridin-3-yl}amino)-N,N-dimethylbenzenesulfonamide] |
| 0.14 nM | 0.17 nM | Cc1cc(Nc2nn([C@]3(CC#N)CC[C@@H](C(=O)OC(C)(C)C)OC3)c3cc[nH]c(=O)c23)ccc1C(=O)N1CCOCC1C (single isomer, unassigned) [Example 20-9, (2S,5S)-tert-butyl 5-(cyanomethyl)-5-(3-((3-methyl-4-((S or R)-3-methylmorpholine-4-carbonyl)phenyl)amino)-4-oxo-4,5-dihydro-1H-pyrazolo[4,3-c]pyridin-1-yl)tetrahydro-2H-pyran-2-carboxylate] |
| 0.04 nM | 0.09 nM | CN1Cc2cc(Nc3nn([C@]4(CC#N)CC[C@@H](N5CC(F)C5)CC4)c4cc[nH]c(=O)c34)ccc2S1(=O)=O [Example 18-32] |
| 2.48 nM | 54.7 nM | N#CC[C@]1(n2nc(Nc3ccc(Cl)c(F)c3)c3c(=O)[nH]ccc32)CC[C@H](Nc2ccccc2)CC1 [Example 18-26, Trans 2-(1-(3-((4-chloro-3-fluorophenyl)amino)-4-oxo-4,5-dihydro-1H-pyrazolo[4,3-c]pyridin-1-yl)-4-(phenylamino)cyclohexyl)acetonitrile] |
| 0.65 nM | 0.83 nM | Cc1cc(Nc2nn([C@]3(CC#N)CCCOC3)c3cc[nH]c(=O)c23)ccc1C(=O)N1CCCC[C@H]1C [Example 20-3, 2-((S)-3-(3-((3-methyl-4-((R)-2-methylpiperidine-1-carbonyl)phenyl)amino)-4-oxo-4,5-dihydro-1H-pyrazolo[4,3-c]pyridin-1-yl)tetrahydro-2H-pyran-3-yl)acetonitrile] |
| 0.53 nM | 2.84 nM | CN(C)S(=O)(=O)c1ccc(Nc2nn(C3(CC#N)CCN(CCCc4ccccc4)CC3)c3cc[nH]c(=O)c23)cc1 [Example 8-15, 4-({1-[4-(cyanomethyl)-1-(3-phenylpropyl)piperidin-4-yl]-4-oxo-4,5-dihydro-1H-pyrazolo[4,3-c]pyridin-3-yl}amino)-N,N-dimethylbenzenesulfonamide] |
| 0.77 nM | 0.65 nM | CC(C)(C)OC(=O)N1CCC(CC#N)(n2nc(Nc3ccc4c(c3)CN(C3CCN(CC(F)(F)F)CC3)S4(=O)=O)c3c(=O)[nH]ccc32)CC1 [Example 21-15, tert-butyl-4-(cyanomethyl)-4-(3-((1,1-dioxido-2-(1-(2,2,2-trifluoroethyl)piperidin-4-yl)-2,3-dihydrobenzo[d]isothiazol-5-yl)amino)-4-oxo-4,5-dihydro-1H-pyrazolo[4,3-c]pyridin-1-yl)piperidine-1-carboxylate] |
